How the values were obtained:
Format in all cases: in vivo, nude/nude mice
LS180 cells = assay: LS180 colon cancer xenograft tumor volume; settings: for Average Tumor Volumes: LS180 tumor bearing mice, TNO155 10 mg/kg BID Daily
Description: (§1) Immunocompromised nude/nude mice are inoculated in the right hind flank with cells harboring a KRas G12D mutation. When tumor volumes reach between 200-400 mm^3 in size, the mice are divided into four to five groups of 5 mice each. The first group is administered vehicle only. […] The fourth group is administered the single agent dose of the KRas G12D inhibitor using the twice daily for 2 sequential days followed by 5 days off schedule in combination with the single agent dose of the SHP-2 inhibitor. The treatment period varies from cell line to cell line but typically is between 15-28-days. Tumor volumes are measured using a caliper every two three days and tumor volumes are calculated by the formula: […].
(§2) 20 to 25 nude/nude mice per study were inoculated in the right hind limb with 5×10^6 LS180 cells, GP2D cells, Panc 02.03 cells, or AsPC-1 cells. When tumor volumes reached ˜200 mm^3-400 mm3 (study day 0) 5 mice in each of the groups were administered i.p. vehicle only (10% captisol in 50 mM citrate buffer pH 5.0), 30 mg/kg of Kras G12) inhibitor MRTX1133 (10% captisol in 50 mM citrate buffer, pH 5.0) either on the twice daily schedule or the twice daily for 2 consecutive days followed by 5 days off schedule, 10 mg/kg twice daily of the TNO-155 (0.5% methylcellulose and 0.1% Tween 80 in water) SHP2 inhibitor or 30 mg/kg once daily of the RMC-4550 (10% captisol in 50 mM citrate buffer pH 5.0) SHP2 inhibitor, or 30 mg/kg of Kras G12D inhibitor on either schedule and either TNO-155 or RMC-4550. Tumor volumes, measured at pre-specified days, for the five mice per group were averaged and are reported for LS180, GP2D, Panc 02.03, and AsPC-1 in Tables 2, 3, 4 and 5, respectively.
25 nude/nude mice were inoculated with LS180 cells in the right hind flank. When the tumors reached ˜250 mm^3 five treatment groups were established with five mice per group.

AsPC-1 cells = assay: AsPC-1 pancreatic cancer xenograft tumor volume; settings: for Average Tumor Volumes: AsPC-1 tumor bearing mice
Description: as §1, §2
Experimental Procedures. 20 nude/nude mice were inoculated with AsPC-1 cells in the right hind flank. When the tumors reached ˜200 mm^3 four treatment groups were established with five mice per group.

Panc 02.03 cells = assay: Panc 02.03 pancreatic cancer xenograft tumor volume; settings: for Average Tumor Volumes: Panc 02.03 tumor bearing mice
Description: as §1, §2
Experimental Procedures. 25 nude/nude mice were inoculated with Panc 02.03 cells in the right hind flank. When the tumors reached ˜300 mm^3 four treatment groups were established with five mice per group.

GP2D cells = assay: GP2D colon cancer xenograft tumor volume; settings: for Average Tumor Volumes: GP2D TGI-38 tumor bearing mice
Description: as §1, §2
20 nude/nude mice were inoculated with GP2D cells in the right hind flank. When the tumors reached ˜300 mm^3 four treatment groups were established with five mice per group.

[1] = TNO155 10 mg/kg BID Daily, Study Day 1
[2] = MRTX1133 30 mg/kg BID Daily, Study Day 1

SMILES: C[C@@H]1OCC2(CCN(c3cnc(Sc4ccnc(N)c4Cl)c(N)n3)CC2)[C@@H]1N [TNO155]
- tumor growth inhibition (LS180 cells; LS180, TNO155 10 mg/kg BID daily, single agent, Day 15): 48%
- Average Tumor Volumes (LS180 cells; Study Day 1): 272.732 mm^3
- Average Tumor Volumes (LS180 cells; Study Day 4): 568.234 mm^3
- Average Tumor Volumes (LS180 cells; Study Day 8): 888.474 mm^3
- Average Tumor Volumes (LS180 cells; Study Day 11): 1009.462 mm^3
- Average Tumor Volumes (LS180 cells; Study Day 15): 1155.8525 mm^3
- tumor growth inhibition (AsPC-1 cells; AsPC-1, TNO155 10 mg/kg BID daily, single agent, Day 23): 0%
- Average Tumor Volumes (AsPC-1 cells; [1]): 192.408 mm^3
- Average Tumor Volumes (AsPC-1 cells; TNO155 10 mg/kg BID Daily, Study Day 6): 262.654 mm^3
- Average Tumor Volumes (AsPC-1 cells; TNO155 10 mg/kg BID Daily, Study Day 9): 263.966 mm^3
- Average Tumor Volumes (AsPC-1 cells; TNO155 10 mg/kg BID Daily, Study Day 13): 301.71 mm^3
- Average Tumor Volumes (AsPC-1 cells; TNO155 10 mg/kg BID Daily, Study Day 16): 317.812 mm^3
- Average Tumor Volumes (AsPC-1 cells; TNO155 10 mg/kg BID Daily, Study Day 20): 360.412 mm^3
- Average Tumor Volumes (AsPC-1 cells; TNO155 10 mg/kg BID Daily, Study Day 23): 456.218 mm^3
- tumor growth inhibition (Panc 02.03 cells; Panc 02.03, TNO155 10 mg/kg BID daily, single agent, Day 22): 58%
- Average Tumor Volumes (Panc 02.03 cells; [1]): 330.644 mm^3
- Average Tumor Volumes (Panc 02.03 cells; TNO155 10 mg/kg BID Daily, Study Day 4): 365.57 mm^3
- Average Tumor Volumes (Panc 02.03 cells; TNO155 10 mg/kg BID Daily, Study Day 8): 469.4 mm^3
- Average Tumor Volumes (Panc 02.03 cells; TNO155 10 mg/kg BID Daily, Study Day 11): 522.856 mm^3
- Average Tumor Volumes (Panc 02.03 cells; TNO155 10 mg/kg BID Daily, Study Day 15): 571.16 mm^3
- Average Tumor Volumes (Panc 02.03 cells; TNO155 10 mg/kg BID Daily, Study Day 18): 622.47 mm^3
- Average Tumor Volumes (Panc 02.03 cells; TNO155 10 mg/kg BID Daily, Study Day 22): 657.502 mm^3

SMILES: C#Cc1c(F)ccc2cc(O)cc(-c3ncc4c(N5C[C@H]6CC[C@@H](C5)N6)nc(OC[C@@]56CCCN5C[C@H](F)C6)nc4c3F)c12 [MRTX1133, 4-(4-((1R,5S)-3,8-diazabicyclo[3.2.1]octan-3-yl)-8-fluoro-2-(((2R,7aS)-2-fluorohexahydro-1H-pyrrolizin-7a-yl)methoxy)pyrido[4,3-d]pyrimidin-7-yl)-5-ethynyl-6-fluoronaphthalen-2-ol]
- tumor regression (AsPC-1 cells; AsPC-1, MRTX1133 30 mg/kg BID daily, single agent, Day 23): −28%
- Average Tumor Volumes (AsPC-1 cells; [2]): 193.378 mm^3
- Average Tumor Volumes (AsPC-1 cells; MRTX1133 30 mg/kg BID Daily, Study Day 6): 168.124 mm^3
- Average Tumor Volumes (AsPC-1 cells; MRTX1133 30 mg/kg BID Daily, Study Day 9): 146.75 mm^3
- Average Tumor Volumes (AsPC-1 cells; MRTX1133 30 mg/kg BID Daily, Study Day 13): 143.612 mm^3
- Average Tumor Volumes (AsPC-1 cells; MRTX1133 30 mg/kg BID Daily, Study Day 16): 120.916 mm^3
- Average Tumor Volumes (AsPC-1 cells; MRTX1133 30 mg/kg BID Daily, Study Day 20): 119.264 mm^3
- Average Tumor Volumes (AsPC-1 cells; MRTX1133 30 mg/kg BID Daily, Study Day 23): 139.296 mm^3
- tumor regression (Panc 02.03 cells; Panc 02.03, MRTX1133 30 mg/kg BID, daily administration, single agent, Day 22): −33%
- Average Tumor Volumes (Panc 02.03 cells; [2]): 329.056 mm^3
- Average Tumor Volumes (Panc 02.03 cells; MRTX1133 30 mg/kg BID Daily, Study Day 4): 282.836 mm^3
- Average Tumor Volumes (Panc 02.03 cells; MRTX1133 30 mg/kg BID Daily, Study Day 8): 208.15 mm^3
- Average Tumor Volumes (Panc 02.03 cells; MRTX1133 30 mg/kg BID Daily, Study Day 11): 189.782 mm^3
- Average Tumor Volumes (Panc 02.03 cells; MRTX1133 30 mg/kg BID Daily, Study Day 15): 205.992 mm^3
- Average Tumor Volumes (Panc 02.03 cells; MRTX1133 30 mg/kg BID Daily, Study Day 18): 227.806 mm^3
- Average Tumor Volumes (Panc 02.03 cells; MRTX1133 30 mg/kg BID Daily, Study Day 22): 220.912 mm^3
- Average Tumor Volumes (GP2D cells; MRTX1133 30 mg/kg BID Daily, Study Day 31): 333.196 mm^3

SMILES: Cc1nc(N2CCC3(CC2)CO[C@@H](C)[C@H]3N)c(CO)nc1-c1cccc(Cl)c1Cl [RMC-4550, (3-((3S,4S)-4-amino-3-methyl-2-oxa-8-azaspiro[4.5]decan-8-yl)-6-(2,3-dichlorophenyl)-5-methylpyrazin-2-yl)methanol]
- Average Tumor Volumes (GP2D cells; RMC-4550 30 mg/kg Once Daily, Study Day 1): 300.014 mm^3
- Average Tumor Volumes (GP2D cells; RMC-4550 30 mg/kg Once Daily, Study Day 7): 353.148 mm^3
- Average Tumor Volumes (GP2D cells; RMC-4550 30 mg/kg Once Daily, Study Day 10): 398.576 mm^3
- Average Tumor Volumes (GP2D cells; RMC-4550 30 mg/kg Once Daily, Study Day 14): 497.714 mm^3
- Average Tumor Volumes (GP2D cells; RMC-4550 30 mg/kg Once Daily, Study Day 17): 530.072 mm^3
- Average Tumor Volumes (GP2D cells; RMC-4550 30 mg/kg Once Daily, Study Day 21): 567.882 mm^3
- Average Tumor Volumes (GP2D cells; RMC-4550 30 mg/kg Once Daily, Study Day 26): 685.836 mm^3
- Average Tumor Volumes (GP2D cells; RMC-4550 30 mg/kg Once Daily, Study Day 28): 807.148 mm^3
- Average Tumor Volumes (GP2D cells; RMC-4550 30 mg/kg Once Daily, Study Day 31): 970.626 mm^3
- Average Tumor Volumes (GP2D cells; RMC-4550 30 mg/kg Once Daily, Study Day 35): 1027.032 mm^3
- tumor growth inhibition (GP2D cells; GP2D, RMC-4550 30 mg/kg QD, single agent, Day 35): 56%

From patent publication US20240423984A1, “COMBINATION THERAPIES OF KRAS G12D INHIBITORS WITH SHP-2 INHIBITORS” (MIRATI THERAPEUTICS, INC., priority 2021, published 2024)
